# Assays:
# [1] = test system: BT549; assay: in vitro MSFE with nanoliposome/silicon particle packaged siRNA; type: cell-based, human; conditions: for secondary MSFE: BT549, siRNA, Day 8, p<0.05; for primary and secondary MSFE: BT549 incubated with MSV/siRNA
# Protocol: (§1) “Claudin-low”-like human breast cancer cell lines (SUM159 and BT549) were plated in 24-well ultralow attachment plates with mammary epithelial growth medium (MEGM) (5,000 cells/well). Both cell lines were then treated with 1 μg/well/6 wells of silicon particles loaded with DOPC nanoliposomes/siRNA. The primary MSs were allowed to grow for 3 days. MFs were counted on Day 3 with a GelCount colony counter (Oxford Optronix, Oxford, UK). Mammosphere-Forming Efficiency (MSFE) was calculated by dividing the number of MSs by the number of seeded cells. In addition, established MSs were serially passaged by dissociation, and single cells were re-plated on fresh 24-well, ultra-low-attachment plates to form secondary mammospheres, which were counted after 3 days. One-way ANOVA and Tukey tests were performed. A p-value of less than 0.05 was considered significant.
# (§2) To develop a more clinically relevant model, two of the identified candidates (MLF2 and RPL39L) were compared to Stat3 (positive control), and their siRNA sequences identified within the shRNA vector. These siRNAs were then packaged in nanoliposomes and tested for MSFE using the same protocol as above, except for the addition of packaged siRNA instead of lentiviral shRNA. (N.B. wherein shRNA requires a promoter and needs to be transcribed in order to function, siRNA functions by itself once incorporated into recipient cells).
# (§3) To develop siRNA nanotherapeutics targeting TIC, studies have been conducted to confirm the essential roles of the candidate TIC genes. Exemplary siRNA oligonucleotides specific for STAT3, MFL2, and RPL39L were formulated into nanoliposomes, which were then loaded into porous silicon MSV particles. For in vitro assay, BT549 and SUM159 cells were incubated with MSV/siRNA, and primary and secondary MSFE was measured. […] For in vivo assessment, SCID/Beige mice were inoculated with SUM159 tumor, and treated with MDS/siRNA delivered by tail vein injection. Cells were then isolated from tumor mice 3 weeks later, and MSFE was measured. […] These studies indicate that 1) MDS/siRNA could successfully be delivered to tumor tissues effectively in vivo, 2) uptake of MDS/siRNA by TIC was efficient, and 3) MFL2 and RPL39L were essential genes for TIC.
# (§4) The siRNA sequences of two candidate genes RPL39 and MLF2 were packaged in nanoliposomes and the effects on MSFE determined in vitro, as described above, using packaged siRNA instead of lentiviral shRNA.
# [2] = test system: SUM159; assay: as above; type: cell-based, human; conditions: for secondary MSFE: SUM159, siRNA, Day 8, p<0.05; for primary and secondary MSFE: SUM159 incubated with MSV/siRNA
# Protocol: as §1, §2, §3, §4
# [3] = test system: SUM159 tumor; assay: MDS/siRNA by tail vein in SUM159 tumor mice, MSFE of isolated cells; type: in vivo, SCID/Beige mice; conditions: MDS/siRNA by tail vein injection, cells isolated 3 weeks later
# Protocol: as §3
Substance,secondary MSFE [1],primary and secondary MSFE [1],secondary MSFE [2],primary and secondary MSFE [2],MSFE of cells isolated from tumor mice [3]
"MLF2 siRNA: siRNA against myeloid leukemia factor 2; sense SEQ ID NO: 3 CCCTGATGGATCCCTTTGCTAT, antisense SEQ ID NO: 19 ATAGCAAAGGGATCCATCAGGA (packaged in nanoliposomes, chemistry not given here, further chemistry not given here)",significantly reduced,significant reduction,significantly reduced,significant reduction,Dramatic reduction
"RPL39 siRNA: siRNA against ribosomal protein L39-like; sense SEQ ID NO: 15 ACGATTCCTGGCCAAGAAACAA, antisense SEQ ID NO: 31 TTGTTTCTTGGCCAGGAATCGC (listed as DNA, chemistry not fully specified)",significantly reduced,significant reduction,significantly reduced,significant reduction,Dramatic reduction

# From patent publication US9546367B2, “siRNA compositions and methods for inhibiting gene expression in tumor initiating cells of breast cancer” (priority 2011, dated 2017)
